According to patent publication US10092551B2, “Spiro-thiazolones” (Hoffmann-La Roche Inc., priority 2014, dated 2018):
Where a name gives a salt, the structure may show the parent alone.

Molecular target: human V1a receptor (Homo sapiens (Human), UniProt P37288)
Test: human V1a receptor binding studies (3H-Vasopressin, SPA beads)
Details: membranes of HEK293 cells transiently transfected with human V1a receptor, Ki by Cheng-Prussoff
Outline: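 Membranes from HEK293 cells transiently expressing cloned human V1a receptor, bound on yttrium silicate SPA beads with 4 nM 3H-vasopressin (added stock) and serially diluted compound, 1 h at room temperature. Non-specific binding defined with cold vasopressin; IC50 by non-linear regression, Ki via Cheng-Prusoff.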

Chain of human V1a receptor (P37288 whole entry): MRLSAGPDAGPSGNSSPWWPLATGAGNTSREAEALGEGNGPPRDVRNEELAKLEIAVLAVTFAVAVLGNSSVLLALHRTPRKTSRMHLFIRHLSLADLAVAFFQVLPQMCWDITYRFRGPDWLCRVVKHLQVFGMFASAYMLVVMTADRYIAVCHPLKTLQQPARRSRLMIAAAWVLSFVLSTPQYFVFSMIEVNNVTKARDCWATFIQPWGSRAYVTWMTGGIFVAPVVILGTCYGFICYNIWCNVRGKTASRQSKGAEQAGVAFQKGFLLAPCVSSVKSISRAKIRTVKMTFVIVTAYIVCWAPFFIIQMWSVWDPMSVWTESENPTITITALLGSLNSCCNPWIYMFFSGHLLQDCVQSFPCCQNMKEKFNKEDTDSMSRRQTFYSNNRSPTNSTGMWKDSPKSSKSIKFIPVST

Row | pKi hV1a | SMILES
1 | 8.9 | C/C(=C1/SC(N2CCC3(CC2)OCc2ccccc23)=NC1=O)c1ccc(Cl)cc1 [Example 1, (5E/Z)-5-[1-(4-chlorophenyl)ethylidene]-2-(1′H,3H-spiro[2-benzofuran-1,4′-piperidin]-1′-yl)-1,3-thiazol-4(5H)-one]
2 | 8.4 | COc1ccc(/C(C)=C2\SC(N3CCC4(CC3)OCc3ccccc34)=NC2=O)cn1 [Example 85, (5E/Z)-5-[1-(6-methoxypyridin-3-yl)ethylidene]-2-(1′H,3H-spiro[2-benzofuran-1,4′-piperidin]-1′-yl)-1,3-thiazol-4(5H)-one]
3 | 8.4 | O=C1N=C(N2CCC3(CC2)OC(=O)c2ccccc23)S/C1=C(\CO)c1ccccc1 [Example 142, 1′-[(5Z)-5-(2-hydroxy-1-phenylethylidene)-4-oxo-4,5-dihydro-1,3-thiazol-2-yl]-3H-spiro[2-benzofuran-1,4′-piperidin]-3-one]
4 | 8.3 | C/C(=C1/SC(N2CCC3(CC2)OCc2ccccc23)=NC1=O)c1ccncc1 [Example 33, (5Z)-5-[1-(pyridin-4-yl)ethylidene]-2-(1′H,3H-spiro[2-benzofuran-1,4′-piperidin]-1′-yl)-1,3-thiazol-4(5H)-one]
5 | 8.5 | O=C1N=C(N2CCC3(CC2)OCc2ccccc23)SC1=C1CCCCC1 [Example 52, 5-cyclohexylidene-2-(1′H,3H-spiro[2-benzofuran-1,4′-piperidin]-1′-yl)-1,3-thiazol-4(5H)-one]
6 | 8.3 | C/C(=C1\SC(N2CCC3(CC2)OCc2ccccc23)=NC1=O)c1ccc(Cl)cc1 [Example 27, (5E)-5-[1-(4-chlorophenyl)ethylidene]-2-(1′H,3H-spiro[2-benzofuran-1,4′-piperidin]-1′-yl)-1,3-thiazol-4(5H)-one]
7 | 9.1 | C/C(=C1/SC(N2CCC3(CC2)OCc2ccccc23)=NC1=O)c1cccn1C [Example 37, (5Z)-5-[1-(1-methyl-1H-pyrrol-2-yl)ethylidene]-2-(1′H,3H-spiro[2-benzofuran-1,4′-piperidin]-1′-yl)-1,3-thiazol-4(5H)-one]
8 | 7.0 | C/C(CS(C)(=O)=O)=C1/SC(N2CCC3(CC2)OCc2ccccc23)=NC1=O [Example 121, (5E/Z)-5-[1-(methylsulfonyl)propan-2-ylidene]-2-(1′H,3H-spiro[2-benzofuran-1,4′-piperidin]-1′-yl)-1,3-thiazol-4(5H)-one]
9 | 8.2 | CC/C(=C1\SC(N2CCC3(CC2)OCc2ccccc23)=NC1=O)c1ccc(Cl)cc1 [Example 25, (5E)-5-[1-(4-chlorophenyl)propylidene]-2-(1′H,3H-spiro[2-benzofuran-1,4′-piperidin]-1′-yl)-1,3-thiazol-4(5H)-one]
10 | 8.4 | C/C(=C1/SC(N2CCC3(CC2)OCc2ccccc23)=NC1=O)c1cc(C)on1 [Example 79]
11 | 8.0 | O=C1N=C(N2CCC3(CC2)OC(=O)c2ccccc23)S/C1=C(/CO)c1ccc(Cl)nc1 [Example 145, 1′-{(5E)-5-[1-(6-chloropyridin-3-yl)-2-hydroxyethylidene]-4-oxo-4,5-dihydro-1,3-thiazol-2-yl}-3H-spiro[2-benzofuran-1,4′-piperidin]-3-one]
12 | 8.7 | [2H]C([2H])([2H])/C(=C1\SC(N2CCC3(CC2)OCc2ccccc23)=NC1=O)c1ccccc1 [Example 174, (5E)-5-[1-phenyl(^2H3)ethylidene]-2-(1′H,3H-spiro[2-benzofuran-1,4′-piperidin]-1′-yl)-1,3-thiazol-4(5H)-one]
13 | 6.6 | C/C(CN)=C1\SC(N2CCC3(CC2)OCc2ccccc23)=NC1=O.Cl [Example 66, (5E)-5-(1-aminopropan-2-ylidene)-2-(1′H,3H-spiro[2-benzofuran-1,4′-piperidin]-1′-yl)-1,3-thiazol-4(5H)-one hydrochloride (1:1)]
14 | 7.0 | COCC(COC)=C1SC(N2CCC3(CC2)OCc2ncccc23)=NC1=O [Example 163, 5-(1,3-dimethoxypropan-2-ylidene)-2-(1′H,7H-spiro[furo[3,4-b]pyridine-5,4′-piperidin]-1′-yl)-1,3-thiazol-4(5H)-one]
15 | 9.0 | O=C1N=C(N2CCC3(CC2)OCc2ccccc23)SC1=C(c1ccc[nH]1)c1ccc[nH]1 [Example 122, 5-(di-1H-pyrrol-2-ylmethylidene)-2-(1′H,3H-spiro[2-benzofuran-1,4′-piperidin]-1′-yl)-1,3-thiazol-4(5H)-one]
16 | 7.1 | CC(C)(C)OC(=O)N1CCC/C(=C2/SC(N3CCC4(CC3)OCc3ccccc34)=NC2=O)CC1 [Example 80, tert-butyl (4E/Z)-4-[4-oxo-2-(1′H,3H-spiro[2-benzofuran-1,4′-piperidin]-1′-yl)-1,3-thiazol-5(4H)-ylidene]azepane-1-carboxylate]
17 | 8.3 | O=C1N=C(N2CCC3(CC2)OCc2ccccc23)SC1=C1CCCC1 [Example 53, 5-cyclopentylidene-2-(1′H,3H-spiro[2-benzofuran-1,4′-piperidin]-1′-yl)-1,3-thiazol-4(5H)-one]
18 | 9.2 | CC/C(=C1/SC(N2CCC3(CC2)OCc2ccccc23)=NC1=O)c1ccc(Cl)nc1 [Example 133, (5Z)-5-[1-(6-chloropyridin-3-yl)propylidene]-2-(1′H,3H-spiro[2-benzofuran-1,4′-piperidin]-1′-yl)-1,3-thiazol-4(5H)-one]
19 | 8.9 | [2H]C([2H])([2H])/C(=C1\SC(N2CCC3(CC2)OCc2ccccc23)=NC1=O)c1ccc(Cl)nc1 [Example 172]
20 | 7.3 | O=C1N=C(N2CCC3(CC2)OCc2ccccc23)S/C1=C\c1ccccn1 [Example 90, (5Z)-5-(pyridin-2-ylmethylidene)-2-(1′H,3H-spiro[2-benzofuran-1,4′-piperidin]-1′-yl)-1,3-thiazol-4(5H)-one]
21 | 8.6 | O=C1N=C(N2CCC3(CC2)OCc2ccccc23)SC1=C1c2ccccc2CCc2ccccc21 [Example 98, 5-(10,11-dihydro-5H-dibenzo[a,d][7]annulen-5-ylidene)-2-(1′H,3H-spiro[2-benzofuran-1,4′-piperidin]-1′-yl)-1,3-thiazol-4(5H)-one]
22 | 8.7 | CC(=C1SC(N2CCC3(CC2)OCc2ccccc23)=NC1=O)c1c(C)noc1C (stereo in doubt) [Example 105, (5E)-5-[1-(3,5-dimethyl-1,2-oxazol-4-yl)ethylidene]-2-(1′H,3H-spiro[2-benzofuran-1,4′-piperidin]-1′-yl)-1,3-thiazol-4(5H)-one]
23 | 8.4 | O=C1N=C(N2CCC3(CC2)OCc2ccccc23)S/C1=C1/CCCc2cc(Cl)ccc21 [Example 11, (5E/Z)-5-(6-chloro-3,4-dihydronaphthalen-1(2H)-ylidene)-2-(1′H,3H-spiro[2-benzofuran-1,4′-piperidin]-1′-yl)-1,3-thiazol-4(5H)-one]
24 | 7.8 | O=C1N=C(N2CCC3(CC2)OCc2ccccc23)S/C1=C1/CCCOC1 [Example 76, (5E/Z)-5-(dihydro-2H-pyran-3(4H)-ylidene)-2-(1′H,3H-spiro[2-benzofuran-1,4′-piperidin]-1′-yl)-1,3-thiazol-4(5H)-one]
25 | 7.3 | C/C(=C1/SC(N2CCC3(CC2)OCc2ccccc23)=NC1=O)c1cnc[nH]1 [Example 117, (5E/Z)-5-[1-(1H-imidazol-5-yl)ethylidene]-2-(1′H,3H-spiro[2-benzofuran-1,4′-piperidin]-1′-yl)-1,3-thiazol-4(5H)-one]
26 | 8.0 | O=C1N=C(N2CCC3(CC2)OCc2ccccc23)SC1=C(CF)CF [Example 69, 5-(1,3-difluoropropan-2-ylidene)-2-(1′H,3H-spiro[2-benzofuran-1,4′-piperidin]-1′-yl)-1,3-thiazol-4(5H)-one]
27 | 8.5 | C/C(=C1/SC(N2CCC3(CC2)OCc2ccccc23)=NC1=O)c1ccccc1Cl [Example 14, (5E/Z)-5-[1-(2-chlorophenyl)ethylidene]-2-(1′H,3H-spiro[2-benzofuran-1,4′-piperidin]-1′-yl)-1,3-thiazol-4(5H)-one]
28 | 9.0 | C/C(=C1\SC(N2CCC3(CC2)OCc2ccccc23)=NC1=O)c1ccccc1 [Example 152, (5E)-5-(1-phenylethylidene)-2-(1′H,3H-spiro[2-benzofuran-1,4′-piperidin]-1′-yl)-1,3-thiazol-4(5H)-one]
29 | 8.6 | O=C1N=C(N2CCC3(CC2)OCc2ccccc23)SC1=C1c2ccccc2Sc2ccccc21 [Example 102, 2-(1′H,3H-spiro[2-benzofuran-1,4′-piperidin]-1′-yl)-5-(9H-thioxanthen-9-ylidene)-1,3-thiazol-4(5H)-one]
30 | 8.3 | C/C(=C1/SC(N2CCC3(CC2)OCc2ccccc23)=NC1=O)C(F)(F)F [Example 71, (5Z)-2-(1′H,3H-spiro[2-benzofuran-1,4′-piperidin]-1′-yl)-5-(1,1,1-trifluoropropan-2-ylidene)-1,3-thiazol-4(5H)-one]

Row | SMILES | pKi hV1a
31 | C/C(CO[Si](C)(C)C(C)(C)C)=C1/SC(N2CCC3(CC2)OCc2ccccc23)=NC1=O [Example 59, (5Z)-5-(1-{[tert-butyl(dimethyl)silyl]oxy}propan-2-ylidene)-2-(1′H,3H-spiro[2-benzofuran-1,4′-piperidin]-1′-yl)-1,3-thiazol-4(5H)-one] | 6.5
32 | C/C(CO[Si](C)(C)C(C)(C)C)=C1\SC(N2CCC3(CC2)OCc2ccccc23)=NC1=O [Example 58, (5E)-5-(1-{[tert-butyl(dimethyl)silyl]oxy}propan-2-ylidene)-2-(1′H,3H-spiro[2-benzofuran-1,4′-piperidin]-1′-yl)-1,3-thiazol-4(5H)-one] | 7.2

Same assay, conditions: membranes of HEK293 cells transiently transfected with human V1a receptor, Ki by Cheng-Prussoff, read-out: pKi hV1a (converted)

Row | Ki | SMILES
33 | 126 nM | O=C1N=C(N2CCC3(CC2)OCc2ccccc23)SC1=C1CCCNCC1 (racemic) [Example 81, (5E/Z)-5-(azepan-4-ylidene)-2-(1′H,3H-spiro[2-benzofuran-1,4′-piperidin]-1′-yl)-1,3-thiazol-4(5H)-one hydrochloride]
